Results from patent US20260364088A1, “TASL MIMICKING MOLECULES AND APPLICATIONS THEREOF” (CEMM - FORSCHUNGSZENTRUM FÜR MOLEKULARE MEDIZIN GMBH, priority 2022, published 2026).

Legend:
[1] = tested on: TNF production in CD14^+ monocytes; experiment: TNF ELISA, R848-stimulated purified CD14^+ monocytes; format: cell-based, human; conditions: purified CD14^+ cells, dTASL1 10 µM 24 h, R848 (5 μg/ml) 16 h, n=8
Source text: HEK293T cells and THP1 cells were purchased from ATCC, THP1 DUAL/ISRE reporter cell lines from Invivogen. CAL-1 cells were provided by T. Maeda (Nagasaki University). Cell lines—except for CAL-1—were authenticated by short tandem repeat profiling and regularly tested for mycoplasma contamination. Human primary PBMCs were isolated from the blood of anonymous healthy donors as well as SLE patients included in our biobank approved by the ethics committee of the Medical University of Vienna (EK2071/2020 and EK1075/2021). CD14^+ monocytes were purified by magnetic-activated cell sorting (Miltenyi Biotec, #130-050-201) according to the manufacturers protocol. Purity of CD14^+ cells ranged between 80.8% and 94.2% as determined by flow cytometry analysis. […]
Given that all evidence obtained seems to confirm the mechanistic precision of this chemical agent, any further consideration of assessing the therapeutic potential required evidence for activity in human primary cells relevant for SLE pathophysiology. The effect of dTASL1 in human peripheral blood mononuclear cells (PBMCs) was assessed. […] The impact of dTASL1 on TLR7/8 responses by directly monitoring IRF5 by confocal microscopy in B cells was assessed.

TASL-SLC15A4 complex = TASL-SLC15A4 complex (Homo sapiens, UniProt Q8N697); experiment: PM-associated TASL levels in cells coexpressing ΔN-SLC15A4 and TASL-GFP; format: cell-based; conditions: 10 µM, 24 h
Method: For live cell imaging cells were plated in PhenoPlate 96-well plates or Ibidi m-Slide 8 (Ibidi) wells at 16 k/well and incubated over-night. Then compounds were added, if indicated, and cells were imaged after 24 h of incubation. Cells were stained with LysoTracker Deep Red L12492 (ThermoFisher) and Hoechst 34580 (ThermoFisher). PhenoPlate images were acquired on an Opera Phenix Plus High-Content Screening System (PerkinElmer) and m-Slide images were acquired on a confocal laser scanning microscope (Zeiss LSM980, Carl Zeiss) equipped with an incubation chamber. Images were analyzed with Fiji-ImageJ.
Encouraged by the fact that the chemical entity of the present invention was showing the desired behavior and specificity profile, it became important to better clarify the molecular basis of this uncommon mechanism of action, i.e interference with a highly specific protein interaction leading to degradation of a single complex component. The effect of dTASL1 on complex assembly was first monitored. […] While total levels of SLC15A4-GFP were unaltered, localization appears to reflect some lysosomal rearrangement. […] To further rule out the residual possibility of an indirect effect, possibly related to TASL maturation or transport, dTASL1 competition assays with GFP-SLC15A4 associated with short N-terminal portions of TASL protein were performed. […]

CAL-1 pDCs = experiment: ELISA of R848-induced responses in CAL-1 pDCs; format: cell-based, human
Method: CAL-1, THP1 or human primary cells were incubated with dTASL1 and other identified compounds (or the corresponding volume of DMSO vehicle) for 24 h or 48 h at the indicated concentration and subsequently stimulated with R848 (5 μg/ml) for the indicated time. Supernatant or cells were recovered for ELISA, SDS-PAGE or microscopy-based analysis.
All enzyme-linked immunosorbent assay (ELISA) experiments were performed using diluted cell supernatant according to manufacturer's instructions. ELISA kits for human IL-6 (no. 88-7066-88), human CCL2 (no. 88-7399-88) and human TNF (no. 88-7346-77) were from Invitrogen. ELISA kit for human interferon beta […] was from PBL Assay Science (41410-1).
Based on potency and kinetics, the compound C5 was selected for further characterization (FIG. 2E). C5 is an elongated molecule comprised of an aromatic 2-(4-ethoxyphenyl)-quinoline moiety followed by an amide bond and an aliphatic 2-methyl-1-propylpiperidine (FIG. 2F). To validate the scaffold and explore the chemical space at the aliphatic end of the compound, five analogues and an independently synthesized batch of C5 were obtained. […] Therefore the C5 compound was selected, which was named dTASL1 as its activity leads to TASL degradation, to assess effects on TLR7/8-induced signaling and responses.

Chain of TASL-SLC15A4 complex (Q8N697 whole entry, one chain of several): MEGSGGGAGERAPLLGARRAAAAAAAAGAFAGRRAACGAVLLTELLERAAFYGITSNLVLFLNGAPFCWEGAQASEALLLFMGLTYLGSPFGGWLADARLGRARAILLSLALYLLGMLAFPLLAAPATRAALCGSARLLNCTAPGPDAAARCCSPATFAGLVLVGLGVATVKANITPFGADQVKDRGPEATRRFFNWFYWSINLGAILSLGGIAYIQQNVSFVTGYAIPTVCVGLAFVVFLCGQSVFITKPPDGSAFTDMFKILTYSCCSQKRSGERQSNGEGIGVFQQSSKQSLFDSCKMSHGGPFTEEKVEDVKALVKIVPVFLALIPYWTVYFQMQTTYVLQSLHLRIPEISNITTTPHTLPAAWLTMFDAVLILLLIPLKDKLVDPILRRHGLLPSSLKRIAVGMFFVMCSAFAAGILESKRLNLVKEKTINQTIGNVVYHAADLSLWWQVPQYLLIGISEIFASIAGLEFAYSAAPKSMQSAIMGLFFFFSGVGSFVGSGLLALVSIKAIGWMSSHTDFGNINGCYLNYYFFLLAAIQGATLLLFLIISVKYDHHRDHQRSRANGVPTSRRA

For `CCOc1ccc(-c2cc(C(=O)NCCCN3CCCCC3C)c3ccccc3n2)cc1` (stereo not shown) [dTASL1, 2-(4-ethoxyphenyl)-N-(3-(2-methylpiperidin-1-yl)propyl) quinoline-4-carboxamide], the TNF production [1] was “a significant reduction in this proinflammatory cytokine”, the “PM-associated TASL levels” value (TASL-SLC15A4 complex) was “severely reduced PM-associated TASL levels” and the R848-induced responses (CAL-1 pDCs; CAL-1 pDCs, 24 h pre-treatment, R848 (5 μg/ml) 16-24 h) was “strongly suppressed R848-induced responses”. The “downstream type I IFN production” value (CAL-1 pDCs; human monocytic and pDC cell lines) was “specifically impairs TLR7/8-induced IRF5 activation and downstream type I IFN production”.
